Patent US11702422B2, “Imidazopyridazines as modulators of IL-17” (Janssen Pharmaceutica NV, priority 2020, dated 2023)

Tests used:
[1] = target: IL-17A(FLAG-Tagged): IL-17RA(His-Tagged) (Homo sapiens, UniProt Q16552, K93Q); experiment: IL-17A(FLAG-Tagged): IL-17RA(His-Tagged) Binding Disruption Eu-HTRF Assay; conditions: IL-17A/IL-17RA binding disruption, simple average if tested more than once
From the text: IL-17A(FLAG-Tagged): IL-17RA(His-Tagged) Binding Disruption Eu-HTRF Assay
An antibody directed against the FLAG tag of IL-17A (SEQ ID NO:1) is labeled with the HTRF donor chromophore (Europium-cryptate). IL-17A is present as a dimer that is “locked into” this quaternary structure due to the formation of loop-spanning […] disulfide bridges. The construct of IL-17RA used in the assay excludes the […] portion of the receptor and is fused to a C-terminal 10×His tag (SEQ ID NO:2). An antibody directed against the His tag of the IL-17RA chimera is labeled with the HTRF acceptor chromophore (“D2”). The fluorescence-resonance energy transfer (FRET) depends on the vicinity of the donor chromophore to the acceptor, and interruption of the binding between the IL-17A and IL-17RA causes the reduction/loss of FRET. Therefore, this assay allows to evaluate the compound effect on the binding IL-17A and IL-17RA by monitoring the fluorescence intensity of donor vs acceptor. The assay is run as described below.
40 nl of 2-fold serial diluted compound solution for total 22 dilution points is added into each well of a 1536-well, white, low-volume, non-binding plate (Greiner #782904), then 2 μl of FLAG tagged IL-17A at 2× final concentration (2.5 nM) in solution of PBS+0.01% Triton-X100 is added to each well. The assay plate is briefly centrifuged then incubated for 1 h at rt. A mixed solution is prepared containing 2×5 nM 10HIS×IL-17RA, 2×2.5 nM Eu-anti-FLAG (CISBIO), 2×5 nM D2-anti-HIS (CISBIO) in PBS+0.01% Triton-X100+200 mM Potassium Fluoride (Sigma 60238) and 2 μl of mix is added to each well of the assay plate. The plate is briefly centrifuged then incubated for 2 h at rt. The HTRF intensities at the wavelength of donor (620 nm) and acceptor (665 nm) are measured using BMG Pherastar. The ratio between intensities at two wavelengths is calculated and plotted against the compound concentration and the data is fitted to a one-site competition model to yield IC50 of the compound.

[2] = tested on: IL-17A-induced G-CSF production in human normal keratinocyte (NHK); experiment: NHK Assay: IL-17A-induced G-CSF production in human normal keratinocytes; assay type: cell-based; conditions: Homo sapiens, Keratinocyte, 24 h, adult normal human keratinocytes, IL-17A 5 ng/mL, simple average if tested more than once
Procedure: IL-17A acts directly on keratinocytes through binding to dimeric receptor IL-17RA/RC and drives the production of a number of inflammatory mediators known to be elevated in psoriasis lesional tissue. IL-17A small molecule inhibitors that block the IL-17A to interact with IL-17R would inhibit the IL-17A signaling in its targeted cells such as keratinocytes. The compound functional activity is evaluated for its impact on IL-17A-induced G-CSF production in human normal keratinocyte (NHK).
Adult normal human keratinocytes are cultured in keratinocyte growth medium (Lonza) in a flask till reaching ˜ 90% confluence, then cells are transferred to a 384-well plate at density of 3000-4000 cell/well. Recombinant human IL-17A (Gibco PHC9174) is pre-incubated with titrated compound or DMSO for 1 h at rt then added to the cell culture plate. The final concentration of IL-17A is 5 ng/mL and DMSO is 0.2%, in the culture containing 5% FBS. Cells are cultured/treated for 24 h at 37° C. Supernatants are collected and G-CSF production is measured through HTRF technology using Human G-CSF Kit (CisBio). G-CSF concentration was extrapolated from the standard curve and IC50 is determined using GraphPad Prism. Cell viability is also evaluated using CellTiter-Glo kit (Promega) and effect of compound on cell viability is compared to DMSO control.

Sequence of UniProt Q16552 (Q16552 with tags, fused parts or gaps K93Q): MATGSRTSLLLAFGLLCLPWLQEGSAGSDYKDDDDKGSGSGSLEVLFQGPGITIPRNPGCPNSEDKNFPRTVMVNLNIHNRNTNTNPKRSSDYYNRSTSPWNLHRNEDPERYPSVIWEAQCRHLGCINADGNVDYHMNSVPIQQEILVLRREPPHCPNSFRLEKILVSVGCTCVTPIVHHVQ

| SMILES | IC50 [1] [nM] | IC50 [2] [nM] |
| --- | --- | --- |
| O=C(CCC(F)(F)F)N[C@@H](c1cnn2cc([C@@H](NC(=O)c3cncc(CC(F)F)c3)C3CCC(F)(F)CC3)nc2c1)C1CC1 [Example 152, N—((S)-(7-((R)-Cyclopropyl(4,4,4-trifluorobutanamido)methyl)imidazo[1,2-b]pyridazin-2-yl)(4,4-difluorocyclohexyl)methyl)-5-(2,2-difluoroethyl)nicotinamide] | 32 | 180 |
| Cn1nnc(C(=O)N[C@H](c2cn3ncc([C@H](NC(=O)CCC(F)(F)F)C4CC4)cc3n2)C2CCC(F)(F)CC2)c1C(F)F [Example 66, N—((S)-(7-((R)-Cyclopropyl(4,4,4-trifluorobutanamido)methyl)imidazo[1,2-b]pyridazin-2-yl)(4,4-difluorocyclohexyl)methyl)-5-(difluoromethyl)-1-methyl-1H-1,2,3-triazole-4-carboxamide] | 230 | 3500 |
| Cc1ccncc1C(=O)N[C@H](c1cn2ncc([C@H](NC(=O)CCC(F)(F)F)C3CC3)cc2n1)C1CCC(F)(F)CC1 [Example 209, N—((S)-(7-((R)-Cyclopropyl(4,4,4-trifluorobutanamido)methyl)imidazo[1,2-b]pyridazin-2-yl)(4,4-difluorocyclohexyl)methyl)-4-methylnicotinamide] | 1400 | > 20000 |
| N#CC12CC(Cn3cc(C(=O)N[C@H](c4cn5ncc([C@H](NC(=O)CCC(F)(F)F)C6CC6)cc5n4)C4CCC(F)(F)CC4)nn3)(C1)C2 [Example 147, 1-((3-Cyanobicyclo[1.1.1]pentan-1-yl)methyl)-N—((S)-(7-((R)-cyclopropyl(4,4,4-trifluorobutanamido)methyl)imidazo[1,2-b]pyridazin-2-yl)(4,4-difluorocyclohexyl)methyl)-1H-1,2,3-triazole-4-carboxamide] | 1700 | > 20000 |
| O=C(CCC(F)(F)F)N[C@@H](c1cnn2cc([C@@H](NC(=O)c3cncc(OCC(F)F)c3)C3CCC(F)(F)CC3)nc2c1)C1CC1 [Example 183, N—((S)-(7-((R)-Cyclopropyl(4,4,4-trifluorobutanamido)methyl)imidazo[1,2-b]pyridazin-2-yl)(4,4-difluorocyclohexyl)methyl)-5-(2,2-difluoroethoxy)nicotinamide] | 69 | 520 |
| Cc1nonc1C(=O)N[C@H](c1cn2ncc([C@H](NC(=O)CCCF)C3CC3)cc2n1)C1CCC(F)(F)CC1 [Example 252, N—((S)-(7-((R)-Cyclopropyl(4-fluorobutanamido)methyl)imidazo[1,2-b]pyridazin-2-yl)(4,4-difluorocyclohexyl)methyl)-4-methyl-1,2,5-oxadiazole-3-carboxamide] | 640 | 7700 |
| O=C(CCC(F)(F)F)N[C@@H](c1cnn2cc([C@@H](NC(=O)c3cccnc3C3CC3)C3CCC(F)(F)CC3)nc2c1)C1CC1 [Example 193, 2-Cyclopropyl-N—((S)-(7-((R)-cyclopropyl(4,4,4-trifluorobutanamido)methyl)imidazo[1,2-b]pyridazin-2-yl)(4,4-difluorocyclohexyl)methyl)nicotinamide] | 500 | 1300 |
| CC(C)n1nccc1C(=O)N[C@H](c1cn2ncc([C@H](NC(=O)C[C@@H](O)C(F)(F)F)C3CC3)cc2n1)C1CCC(F)(F)CC1 (relative stereo) [Example 130, N—((S)-(7-((R*)-Cyclopropyl((R*)-4,4,4-trifluoro-3-hydroxybutanamido)methyl)imidazo[1,2-b]pyridazin-2-yl)(4,4-difluorocyclohexyl)methyl)-1-isopropyl-1H-pyrazole-5-carboxamide] | 270 | 390 |
| O=C(CCC(F)(F)F)N[C@@H](c1cnn2cc([C@@H](NC(=O)c3cnoc3C3CC3)C3CCC(F)(F)CC3)nc2c1)C1CC1 [Example 84, 5-Cyclopropyl-N—((S)-(7-((R)-cyclopropyl(4,4,4-trifluorobutanamido)methyl)imidazo[1,2-b]pyridazin-2-yl)(4,4-difluorocyclohexyl)methyl)isoxazole-4-carboxamide] | 80 | 160 |
| O=C(CCC(F)(F)F)N[C@@H](c1cnn2cc([C@@H](NC(=O)c3ccncn3)C3CCC(F)(F)CC3)nc2c1)C1CC1 [Example 207, N—((S)-(7-((R)-Cyclopropyl(4,4,4-trifluorobutanamido)methyl)imidazo[1,2-b]pyridazin-2-yl)(4,4-difluorocyclohexyl)methyl)pyrimidine-4-carboxamide] | 1800 | 8400 |

Continued, in another order:

| IC50 [1] [nM] | SMILES | IC50 [2] [nM] |
| --- | --- | --- |
| 43 | CCOc1nonc1C(=O)N[C@H](c1cn2ncc([C@H](NC(=O)CC3CC(F)(F)C3)C3CC3)cc2n1)C1CCC(F)(F)CC1 [Example 391, N—((S)-(7-((R)-Cyclopropyl(2-(3,3-difluorocyclobutyl)acetamido)methyl)imidazo[1,2-b]pyridazin-2-yl)(4,4-difluorocyclohexyl)methyl)-4-ethoxy-1,2,5-oxadiazole-3-carboxamide] | 47 |
| 120 | Cc1nonc1C(=O)N[C@H](c1cn2ncc([C@H](NC(=O)CCCC(F)F)C3CC3)cc2n1)C1CCC(F)(F)CC1 [Example 326, N—((S)-(7-((R)-Cyclopropyl(5,5-difluoropentanamido)methyl)imidazo[1,2-b]pyridazin-2-yl)(4,4-difluorocyclohexyl)methyl)-4-methyl-1,2,5-oxadiazole-3-carboxamide] | 1100 |
| 5000 | Cc1nonc1C(=O)N[C@H](c1cn2ncc([C@H](NC(=O)[C@H]3CC[C@H]3F)C3CC3)cc2n1)C1CCC(F)(F)CC1 (relative stereo) [Example 336, N—((S)-(7-((R)-Cyclopropyl((1R*,2R*)-2-fluorocyclobutane-1-carboxamido)methyl)imidazo[1,2-b]pyridazin-2-yl)(4,4-difluorocyclohexyl)methyl)-4-methyl-1,2,5-oxadiazole-3-carboxamide] | > 20000 |
| 45000 | Cc1nc(C)c(C(=O)N[C@H](c2cn3ncc([C@H](NC(=O)CCC(F)(F)F)C4CC4)cc3n2)C2CCC(F)(F)CC2)o1 [Example 472, N—((S)-(7-((R)-Cyclopropyl(4,4,4-trifluorobutanamido)methyl)imidazo[1,2-b]pyridazin-2-yl)(4,4-difluorocyclohexyl)methyl)-2,4-dimethyloxazole-5-carboxamide] | > 20000 |
| 300 | O=C(CCC(F)(F)F)N[C@@H](c1cnn2cc([C@@H](NC(=O)c3cnn(CCNCC(F)(F)CCl)n3)C3CCC(F)(F)CC3)nc2c1)C1CC1 [Example 486, 2-[2-[(3-Chloro-2,2-difluoro-propyl)amino]ethyl]-N—[(S)-[7-[(R)-cyclopropyl-(4,4,4-trifluorobutanamido)methyl]imidazo[1,2-b]pyridazin-2-yl]-(4,4-difluorocyclohexyl)methyl]triazole-4-carboxamide] | 1100 |
| 140 | Nc1nonc1C(=O)N[C@H](c1cn2ncc([C@H](NC(=O)CCC(F)(F)F)C3CC3)cc2n1)C1CCC(F)(F)CC1 [Example 370, 4-Amino-N—((S)-(7-((R)-cyclopropyl(4,4,4-trifluorobutanamido)methyl)imidazo[1,2-b]pyridazin-2-yl)(4,4-difluorocyclohexyl)methyl)-1,2,5-oxadiazole-3-carboxamide] | 470 |
| 4600 | Cc1cc(C(=O)N[C@H](c2cn3ncc([C@H](NC(=O)CCC(F)(F)F)C4CC4)cc3n2)C2CCC(F)(F)CC2)cnn1 [Example 418, N—((S)-(7-((R)-Cyclopropyl(4,4,4-trifluorobutanamido)methyl)imidazo[1,2-b]pyridazin-2-yl)(4,4-difluorocyclohexyl)methyl)-6-methylpyridazine-4-carboxamide] | > 20000 |
